# From ChEMBL document CHEMBL1150139, “Four new neuroprotective iridoid glycosides from Scrophularia buergeriana roots” (2002)
# System: Cortical neurone
# Test: Neuroprotective activity against Sprague-Dawley rat cortical neurons assessed as glutamate-induced LDH release at 10 uM for 1 hr before glutamate challenge measured after 24 hrs by spectrophotometry
# Format: functional
row,Structure (SMILES),Activity [%]
1,COc1ccc(/C=C/C(=O)O[C@@]2(C)C[C@@H](O)[C@]3(O)C=CO[C@@H](O[C@@H]4O[C@H](CO)[C@@H](O)[C@H](O)[C@H]4O)[C@@H]32)cc1,58.9
2,COc1ccc(/C=C\C(=O)O[C@@]2(C)C[C@@H](O)[C@]3(O)C=CO[C@@H](O[C@@H]4O[C@H](CO)[C@@H](O)[C@H](O)[C@H]4O)[C@@H]32)cc1,49.6
3,COc1ccc(/C=C\C(=O)OC[C@H]2O[C@@H](O[C@@H]3OC=C[C@@]4(O)[C@H](O)C[C@](C)(O)[C@@H]34)[C@H](O)[C@@H](O)[C@@H]2O)cc1,46.6
4,COc1ccc(/C=C/C(=O)OC[C@H]2O[C@@H](O[C@@H]3OC=C[C@@]4(O)[C@H](O)C[C@](C)(O)[C@@H]34)[C@H](O)[C@@H](O)[C@@H]2O)cc1,60.3
5,N#Cc1cc2c(cc1[N+](=O)[O-])=NC(=O)C(=O)N=2,61.6
6,NC(CCCP(=O)(O)O)C(=O)O (racemic),43.6
7,C[C@]12N[C@H](Cc3ccccc31)c1ccccc12.O=C(O)/C=C\C(=O)O [DIZOCILPINE MALEATE],83.6
8,C[C@]1(O)C[C@@H](O)[C@]2(O)C=CO[C@@H](O[C@H]3O[C@H](CO)[C@@H](O)[C@H](O)[C@H]3O)[C@@H]21 [HARPAGIDE],46.2
9,C[C@]1(OC(=O)/C=C/c2ccccc2)C[C@@H](O)[C@]2(O)C=CO[C@@H](O[C@@H]3O[C@H](CO)[C@@H](O)[C@H](O)[C@H]3O)[C@@H]21 [HARPAGOSIDE],44.7
10,C[C@]1(OC(=O)/C=C\c2ccccc2)C[C@@H](O)[C@]2(O)C=CO[C@@H](O[C@@H]3O[C@H](CO)[C@@H](O)[C@H](O)[C@H]3O)[C@@H]21 [Z-harpagoside],42.5

# System: Cortical neurone
# Test: Neuroprotective activity against Sprague-Dawley rat cortical neurons assessed as glutamate-induced LDH release at 0.1 uM for 1 hr before glutamate challenge measured after 24 hrs by spectrophotometry
# Format: functional
row,Structure (SMILES),Activity [%]
1,COc1ccc(/C=C/C(=O)O[C@@]2(C)C[C@@H](O)[C@]3(O)C=CO[C@@H](O[C@@H]4O[C@H](CO)[C@@H](O)[C@H](O)[C@H]4O)[C@@H]32)cc1,54.9
2,COc1ccc(/C=C\C(=O)O[C@@]2(C)C[C@@H](O)[C@]3(O)C=CO[C@@H](O[C@@H]4O[C@H](CO)[C@@H](O)[C@H](O)[C@H]4O)[C@@H]32)cc1,40.7
3,COc1ccc(/C=C\C(=O)OC[C@H]2O[C@@H](O[C@@H]3OC=C[C@@]4(O)[C@H](O)C[C@](C)(O)[C@@H]34)[C@H](O)[C@@H](O)[C@@H]2O)cc1,33.3
4,COc1ccc(/C=C/C(=O)OC[C@H]2O[C@@H](O[C@@H]3OC=C[C@@]4(O)[C@H](O)C[C@](C)(O)[C@@H]34)[C@H](O)[C@@H](O)[C@@H]2O)cc1,39.1
5,N#Cc1cc2c(cc1[N+](=O)[O-])=NC(=O)C(=O)N=2,28.1
6,NC(CCCP(=O)(O)O)C(=O)O (racemic),5.7
7,C[C@]12N[C@H](Cc3ccccc31)c1ccccc12.O=C(O)/C=C\C(=O)O [DIZOCILPINE MALEATE],31.8
8,C[C@]1(O)C[C@@H](O)[C@]2(O)C=CO[C@@H](O[C@H]3O[C@H](CO)[C@@H](O)[C@H](O)[C@H]3O)[C@@H]21 [HARPAGIDE],41.4
9,C[C@]1(OC(=O)/C=C/c2ccccc2)C[C@@H](O)[C@]2(O)C=CO[C@@H](O[C@@H]3O[C@H](CO)[C@@H](O)[C@H](O)[C@H]3O)[C@@H]21 [HARPAGOSIDE],38.2
10,C[C@]1(OC(=O)/C=C\c2ccccc2)C[C@@H](O)[C@]2(O)C=CO[C@@H](O[C@@H]3O[C@H](CO)[C@@H](O)[C@H](O)[C@H]3O)[C@@H]21 [Z-harpagoside],26.4

# System: Cortical neurone
# Test: Neuroprotective activity against Sprague-Dawley rat cortical neurons assessed as glutamate-induced LDH release at 1 uM for 1 hr before glutamate challenge measured after 24 hrs by spectrophotometry
# Format: functional
row,Structure (SMILES),Activity [%]
1,COc1ccc(/C=C/C(=O)O[C@@]2(C)C[C@@H](O)[C@]3(O)C=CO[C@@H](O[C@@H]4O[C@H](CO)[C@@H](O)[C@H](O)[C@H]4O)[C@@H]32)cc1,61.8
2,COc1ccc(/C=C\C(=O)O[C@@]2(C)C[C@@H](O)[C@]3(O)C=CO[C@@H](O[C@@H]4O[C@H](CO)[C@@H](O)[C@H](O)[C@H]4O)[C@@H]32)cc1,48.2
3,COc1ccc(/C=C\C(=O)OC[C@H]2O[C@@H](O[C@@H]3OC=C[C@@]4(O)[C@H](O)C[C@](C)(O)[C@@H]34)[C@H](O)[C@@H](O)[C@@H]2O)cc1,47.6
4,COc1ccc(/C=C/C(=O)OC[C@H]2O[C@@H](O[C@@H]3OC=C[C@@]4(O)[C@H](O)C[C@](C)(O)[C@@H]34)[C@H](O)[C@@H](O)[C@@H]2O)cc1,60.9
5,N#Cc1cc2c(cc1[N+](=O)[O-])=NC(=O)C(=O)N=2,47.3
6,NC(CCCP(=O)(O)O)C(=O)O (racemic),27.8
7,C[C@]12N[C@H](Cc3ccccc31)c1ccccc12.O=C(O)/C=C\C(=O)O [DIZOCILPINE MALEATE],61.5
8,C[C@]1(O)C[C@@H](O)[C@]2(O)C=CO[C@@H](O[C@H]3O[C@H](CO)[C@@H](O)[C@H](O)[C@H]3O)[C@@H]21 [HARPAGIDE],42.2
9,C[C@]1(OC(=O)/C=C/c2ccccc2)C[C@@H](O)[C@]2(O)C=CO[C@@H](O[C@@H]3O[C@H](CO)[C@@H](O)[C@H](O)[C@H]3O)[C@@H]21 [HARPAGOSIDE],38.5
10,C[C@]1(OC(=O)/C=C\c2ccccc2)C[C@@H](O)[C@]2(O)C=CO[C@@H](O[C@@H]3O[C@H](CO)[C@@H](O)[C@H](O)[C@H]3O)[C@@H]21 [Z-harpagoside],38.8
